According to patent US20240024365A1, “POTENTIATION OF BONE MARROW CELL ACTIVITY BY COADMINISTRATION WITH OXYTOCIN” (CREATIVE MEDICAL TECHNOLOGIES, INC., priority 2022, published 2024):

Experiments:
[1] = system: allogeneic peripheral blood mononuclear cells (mixed lymphocyte reaction); experiment: Mixed lymphocyte reaction (MLR) with ProCell (oxytocin) treated cord blood CD14 monocytes; assay type: cell-based, human; details: for Proliferation in MLR: ProCell treated CD14 monocytes added to MLR, tritiated thymidine; for Treg (FoxP3) generation in MLR: flow cytometry
Protocol: Methods: UCBMNC where treated with ProCell (oxytocin) and monocytic populations where extracted by CD14 Magnetic Activated Cell Separation (MACS). Immune modulatory activity of isolated cells was examined by coculture with allogeneic lymphocytes, as well as added to ongoing mixed lymphocyte reaction (MLR). Proliferation and cytokine production was assessed. Furthermore generation of T regulatory cells was examined by flow cytometry for FoxP3 and ability to suppress T cell proliferation stimulated by CD3/CD28.
Cryopreserved human umbilical cord mononuclear cells (UB-MNCs) were obtained from All Cells, LLC. Immediately prior to the experiment the UBMNC s were thawed in a 37° C. water bath for about one minute and then washed twice in 10 ml PBS with 100 μl DNase (Sigma #D4527-40KU, 1 mg/ml). The number of viable cells was determined using the trypan blue exclusion method. Cell viability generally ranged from 80% to 90%.
Using magnetic antibody cell sorting (MACS), UB-MNCs were selected CD14+ monocytes, the MNC were centrifuged at 1000 rpm×10 minutes, the supernatant aspirated and the cells resuspended in 80 μl of buffer per […] and incubated at 4° C. for 15 min. Antibody conjugated paramagnetic microbeads CD14 labeled beads (cat #130-050-201, Miltenyi Biotechwere used to enrich for monocytes. After incubation, the cells were washed with buffer and centrifuged at 1000 rpm for 10 min. The cells were resuspended in 500 μl of buffer, then passed through a magnetic column that trapped the paramagnetic beads and the cells they were attached to (AutoMacs Pro). The magnetic field was disengaged and the cells collected.
CD14 cells were cultured in ProCell (oxytocin) at various concentrations in Opti-Mem media with 10% fetal calf serum for 1 hour at 37 Celsius. Cells where subsequently washed in Phosphate Buffered Saline and plated in vitro. Assessment of Treg generation was performed in mixed lymphocyte reaction with allogeneic peripheral blood mononuclear cells. The culture lasted either 48 or 72 hours and various concentrations of ProCell (oxytocin) treated cord blood CD14 expressing cells where added to the responding PBMC. Evaluation of proliferation was performed using the tritiated thymidine method, and cytokine production was measured using ELISA.
Additionally, the stimulation of FoxP3 expression was performed by flow cytometry using fixation and permeabiliization method.

[2] = system: CD3/CD28 stimulated T cell proliferation; experiment: CD3/CD28 stimulation of ProCell (oxytocin) treated bone marrow mononuclear cells: proliferation and cytokines; assay type: cell-based
Protocol: (§1) Methods: Immune modulatory activity of ProCell (oxytocin) was assessed by treatment of bone marrow mononuclear cells with ProCell (oxytocin) and subsequently assayed for proliferative ability and cytokine in response to CD3/CD28 stimulation. The concentration and incubation time of ProCell (oxytocin) identified for maximal immune modulatory effect was used to treat syngeneic bone marrow cells prior to implantation in the SJL/J model of EAE. Cell transplant experiments involving transfer of mesenchymal stem cells (CD105), monocytes (CD14), T cells (CD3) and B cells (CD20) where performed to identify the cellular population responsible for disease protective effect.

[3] = system: experimental autoimmune encephalomyelitis (EAE); experiment: SJL/J model of experimental autoimmune encephalomyelitis (EAE), syngeneic bone marrow cells cultured in ProCell; assay type: in vivo
Protocol: as §1

[4] = system: human umbilical vein endothelial cell (HUVEC); experiment: HUVEC proliferation in vitro; assay type: cell-based; details: compared among 73 factors tested
Protocol: (§2) Methods: ProCell(oxytocin) was assessed for ability to stimulate human umbilical vein endothelial cell (HUVEC) proliferation in vitro. Selected compounds where tested for ability to stimulate colony and tube formation. In vivo angiogenic activity was tested by administration of bone marrow mononuclear cells alone, or ProCell-treated bone marrow mononuclear cells in the hindlimb ischemia assay.

[5] = system: bone marrow mononuclear cells / endothelial progenitors; experiment: Endothelial colony and tube formation of bone marrow cells; assay type: cell-based, human; details: for Endothelial colony formation: bone marrow cells incubated in ProCell, semi-solid media with endothelial differentiation cocktail
Protocol: as §2
Bone marrow was aspirated from patients 3 patients 18-25 years old (Young Patients) and 3 patients 65-80 years old (Old Patients). The cells were either incubated in saline for 30 minutes or incubated in ProCell(oxytocin). Bone marrow cells were evaluated. Evaluation of colony formation was performed by plating mononuclear cells in semi-solid media containing endothelial differentiation cocktail. Number of colonies where counted.

hindlimb ischemia = experiment: Hindlimb ischemia assay (femoral artery ligation), limb survival; assay type: in vivo, mice
Protocol: Methods: ProCell(oxytocin) was assessed for ability to stimulate human umbilical vein endothelial cell (HUVEC) proliferation in vitro. Selected compounds where tested for ability to stimulate colony and tube formation. In vivo angiogenic activity was tested by administration of bone marrow mononuclear cells alone, or ProCell-treated bone marrow mononuclear cells in the hindlimb ischemia assay. Bone marrow mononuclear cells where obtained from syngeneic mice. Cells where administered at a concentration of 1 million cells per leg intramuscularly on days 0, 2, and 4, Oxytocin was injected in the same area on the same days at a concentration of 0.1 IU per mouse. Injury was induced by ligation of the femoral artery and neurotrophic injury was induced. Limb survival was quantified.

critical limb ischemia = experiment: Pilot study in patients with critical limb ischemia; assay type: in vivo, human patients
Protocol: Three patients suffering from critical limb ischemia were recruited. Patients matched the following inclusion criteria. a. Unreconstructable arterial disease was determined by a vascular surgeon who is not participating in the study. Unreconstructable arterial disease is defined by atherocclusive lesions within the arterial tree of the extremity that due to extent or morphology are not amenable to surgical bypass or PTCA and stenting. b. Objective evidence of severe peripheral arterial disease includes an ankle brachial index (ABI) of less than 0.55, and/or a resting toe brachial index (TBI) of […]. c. Patients must be competent to give consent. d. No history of malignant disease except for nonmelanoma skin cancer, no suspicious findings on chest x-ray, mammography (women over age 35), Papanicolaou smear (women over age 40), a normal fecal occult blood (over age 50) and a normal prostate specific antigen (men over age 45). Patients were injected with 10(8) bone-marrow mononuclear cells/aspirate, and administration of ProCell(oxytocin) was performed concurrently. Injections were performed using 10 million cells per injection, with 10 injections locally at the area of failed perfusion in a 10 cm×10 cm area in the gastrocnemius muscle. Ankle Brachial index was measured by comparing the ankle and brachial pressure.

[6] = ProCell treated monocytes, ELISA
[7] = bone marrow cells with concurrent ProCell, patients

With `CC[C@H](C)[C@@H]1NC(=O)[C@H](Cc2ccc(O)cc2)NC(=O)[C@@H](N)CSSC[C@@H](C(=O)N2CCC[C@H]2C(=O)N[C@@H](CC(C)C)C(=O)NCC(N)=O)NC(=O)[C@H](CC(N)=O)NC(=O)[C@H](CCC(N)=O)NC1=O` [ProCell, Oxytocin] the “Proliferation in MLR” value [1] was “suppress proliferation”, the “Proliferation in MLR” value ([1]; listed as ProCell (oxytocin)) was “actively inhibited ongoing MLR” and the “TGF-beta in MLR” value ([1]; ProCell treated monocytes) was “augmentation”. The “IFN-gamma in MLR” value [1, 6] was “suppress IFN-Gamma”, the “IL-10 in MLR” value [1, 6] was “enhances IL-10” and the “IL-10 in MLR” value ([1]; ProCell treated monocytes, ELISA, listed as ProCell (oxytocin)) was “augmentation”. The “Treg (FoxP3) generation in MLR” value ([1]; ProCell treated monocytes) was “enhances Treg (FoxP3)”, the “Treg (FoxP3) generation in MLR” value ([1]; ProCell treated monocytes, listed as ProCell (oxytocin)) was “in vitro generation of active T regulatory cells was observed” and the “Stimulation of allogeneic T cell proliferation” value ([1]; coculture of ProCell cultured CD14 cells with allogeneic lymphocytes) was “did not stimulate allogeneic T cell proliferation”. The IFN-gamma production ([2]; CD3/CD28 stimulation) was “inhibition”, the IL-10 production ([2]; CD3/CD28 stimulation) was “upregulation” and the IL-12 production ([2]; CD3/CD28 stimulation) was “inhibition”. For the same compound, the TGF-beta production ([2]; CD3/CD28 stimulation) was “upregulation”, the “CD3/CD28 stimulated T cell proliferation” value ([2]; bone marrow mononuclear cells treated with ProCell) was “inhibitory effect” and the “Relapse of EAE” value ([3]; animals treated with ProCell cultured cells) was “accelerated reduction of relapse”. The “Inhibition of EAE” value ([3]; animals treated with ProCell cultured syngeneic bone marrow cells) was “Dose dependent inhibition of EAE”, the FoxP3 expressing cells ([3]; correlated with disease inhibition) was “increased FoxP3 expressing cells” and the “Stimulation of HUVEC proliferation” value [4] was “highest stimulatory activity”. The Endothelial colony formation [5] was “increases endothelial colony formation”, the Endothelial colony formation ([5]; listed as ProCell(oxytocin)) was “potent induction” and the Tube formation ([5]; endothelial progenitors and non-purified bone marrow mononuclear cells) was “potent induction”. For the same compound, the Limb loss (hindlimb ischemia; ProCell incubated bone marrow cells) was “prevents limb loss”, the Limb loss (hindlimb ischemia; ProCell incubated bone marrow cells, listed as ProCell(oxytocin)) was “prevent limb loss” and the “Neoangiogenesis in hindlimb ischemia model” value (hindlimb ischemia; bone marrow mononuclear cells/aspirate incubated with ProCell) was “enhanced ability to stimulate neoangiogenesis”. For the same compound, the Limb loss (hindlimb ischemia; localized separate intramuscular administration of ProCell and bone marrow mononuclear cells/aspirate) was “prevention of limb loss”, the “Amputation during the study period” value (critical limb ischemia; 10(8) bone-marrow mononuclear cells/aspirate with concurrent ProCell) was “No patients reported amputation” and the “Critical limb ischemia, before and after photographs” value (critical limb ischemia; bone marrow cells with ProCell) was “improving critical limb ischemia”. The Ankle brachial index (critical limb ischemia; [7]) was “improving” and the Ankle pressure (critical limb ischemia; [7]) was “improving”.
